# PubChem BioAssay AID849 (SRMLSC, 2007)
# Activity calls are given as the source filed them. The rule behind the calls is not given here.
# Test system: Saccharomyces cerevisiae lifespan shortening, growth inhibition
# Assay: Saccharomyces cerevisiae growth inhibition potency – dose response (AID 849);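 note: yeast growth read as optical density after two days at 30 degrees C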
row,Compound,IC50
1,C=CCc1c(C)c(C#N)c2nc3ccccc3n2c1NCCN(C)C,44.5 µM
2,Cc1ccc(C)c(/C=C/C(=O)c2ccccc(=O)c2O)c1,6.4 µM
3,CCCn1c(C)cc(C(=O)COC(=O)c2ccc[nH]c2=O)c1C,35.6 µM
4,Cc1cc(OCc2ccc(C(=O)NN=C3CCCC3)cc2)ccc1Cl,43.6 µM
5,COc1ccc(NC(=O)C2CCCN2S(=O)(=O)c2cccc3cccnc23)c(OC)c1 (stereo not drawn),40.5 µM
6,Cc1cc(C)c2c(N=NN3CCOCC3)[nH]nc2n1,19.9 µM
7,COc1ccc(-c2nnc3sc(C(C)N4C(=O)c5ccccc5C4=O)nn23)cc1 (stereo not drawn),> 100 µM (inactive)
8,O=[N+]([O-])c1ccc(N/N=C/c2ccc[nH]2)cc1,> 100 µM (inactive)
9,CC(NC(=O)Nc1ccc(Cl)cc1)C(c1cccs1)N1CCOCC1 (stereo not drawn),> 100 µM (inactive)
10,Cc1ccc(-c2nc3sc(C(N)=O)c(N)c3c3c2CCCC3)cc1,> 100 µM (inactive)
11,Fc1ccc(Br)cc1C1C=C(c2cccnc2)Nc2ncnn21 (stereo not drawn),> 100 µM (inactive)
12,CC1=C(C)CC2C(=O)N(c3cccc4ccccc34)C(=O)C2C1 (stereo not drawn),> 100 µM (inactive)
13,O=[N+]([O-])c1ccc(Cl)c(S(=O)(=O)N2CCCCCC2)c1,37.4 µM
14,OC(CNCC1CCCO1)Cn1c2ccc(Br)cc2c2cc(Br)ccc21 (stereo not drawn),> 100 µM (inactive)
15,N=c1n(CCN2CCOCC2)c2ccccc2n1CC(=O)c1ccc(Cl)c(Cl)c1,> 100 µM (inactive)
16,C/C(=N\NC(=O)c1ccc(CSc2cccc3cccnc23)cc1)C1CCCCC1,33.8 µM
17,COc1cccc2c(=O)c3c(cnn3C)n(C)c12,11.7 µM
18,CCCCn1c(=O)c(C(=O)NCc2ccncc2)c(O)c2ccccc21,> 100 µM (inactive)
19,Cc1ccc(NC(=O)CSC2=C(C#N)C(c3ccc4c(c3)OCO4)C3=C(CCCC3=O)N2)c(C)c1 (stereo not drawn),> 100 µM (inactive)
20,O=C1c2cccc3cccc(c23)C(=O)N1c1cccnc1,29.5 µM
21,O=C(/C=C/c1ccccc1Cl)c1ccccc(=O)c1O,9.76 µM

row,Compound,IC50
1,OC(CN1CCN(c2ccccn2)CC1)Cn1c2ccc(Cl)cc2c2cc(Cl)ccc21 (stereo not drawn),47.5 µM
2,Cc1ccc(NC(=O)ON=C2CCCC2)cc1,9.19 µM
3,c1ccc(-c2nnc(-c3ccccn3)nc2NC2CCCCC2)cc1,12.5 µM
4,COc1ccc2c(c1)c1nnc(SC)nc1n2C,44.1 µM
5,O=C1CCCC/C1=N\Nc1ccc(OCc2ccccc2)cc1,13.3 µM
6,NC(=O)c1ccc(N=Cc2ccc([N+](=O)[O-])s2)cc1,7.91 µM
7,c1ccc(Cc2nnc3sc(-c4ccc5c(c4)OCCO5)nn23)cc1,> 100 µM (inactive)
8,O=C(OCn1ncc(Br)c(Br)c1=O)c1ccc(F)cc1,6.92 µM
9,Oc1c(Br)cc(Br)cc1/C=N/c1nc2c(s1)CCCC2,17.5 µM
10,NC(N)=N/N=C/c1ccc(OCc2ccc(Cl)cc2Cl)cc1,> 100 µM (inactive)
11,C=C(C)COc1ccc(-c2[nH]ncc2-c2ccccc2OC)c(O)c1,> 100 µM (inactive)
12,Cc1nnc(NC(=O)CSc2nnc(Cc3cccn3C)n2-c2ccccc2)s1,> 100 µM (inactive)
13,S=C(NCC1CCCCC1)Nc1ccc(Oc2ccccc2)cc1,> 100 µM (inactive)
14,COc1ccc(OC)c(CCNC(=O)Cn2sc3nc(C)cc(C)c3c2=O)c1,> 100 µM (inactive)
15,COc1ccc(N/N=C(\C#N)C(N)=O)cc1,> 100 µM (inactive)
16,Cc1cc2nc(C)n3c4ccccc4nc3n2n1,15.4 µM
17,CCc1cc2c(=O)[nH]c(-c3ccccn3)nc2s1,19.2 µM
18,CCC(C)NC(=O)C1CCN(S(=O)(=O)c2cccc3cccnc23)CC1 (stereo not drawn),> 100 µM (inactive)
19,COc1ccc(/C=C/C(=O)c2cc(Br)ccc(=O)c2O)cc1,12.6 µM
20,CCOC(=O)c1c(NC(=O)C(C)Sc2cccc[n+]2[O-])sc2c1CCN(Cc1ccccc1)C2 (stereo not drawn),12.4 µM
21,CCCCCCc1ccc(-c2ncc(N)cn2)cc1,25.9 µM

row,Compound,IC50
1,O=C(COc1ccc(Cl)cc1)NC1=NN(c2ccccc2)C(=O)C1,> 100 µM (inactive)
2,COc1ccc2c(c1)[nH]c1c(Cl)ncnc12,29.9 µM
3,O=C(O)CSc1nc(-c2ccc(Cl)cc2)nc2c1oc1ccccc12,38 µM
4,C/C(O)=c1/ccc2cccc3nc(C)nc1c23,17.6 µM
5,CC(C)Sc1nc(N)nc(-c2cccs2)c1C#N,> 100 µM (inactive)
6,Clc1cc2nc3ccccn3c2cc1Cl,51.5 µM
7,O=C(Oc1c(Cl)cc(Cl)c2cccnc12)c1cccs1,11.1 µM
8,O=C(Nc1cccc(N=Cc2cc(Cl)cc(Br)c2O)c1)c1ccco1,> 100 µM (inactive)
9,COC(=O)CSC1=NS(=O)(=O)c2ccccc21,> 100 µM (inactive)
10,c1cn2cc(-c3ccc4c(c3)OCO4)nc2s1,> 100 µM (inactive)
11,O=[N+]([O-])c1ccc(N=Nc2ccc(O)cc2O)cc1,32 µM
12,N#C/C(=C/c1cn(-c2ccccc2)nc1-c1cccc(OCc2ccc(F)cc2)c1)C(=O)NCCCn1ccnc1,> 100 µM (inactive)
13,Cc1ccc(C(=O)O)cc1N=Cc1cc(Br)cc(Br)c1O,37.4 µM
14,CC(=O)NC(=S)c1c(N)n(Cc2ccccc2)c(=O)n(C)c1=O,> 100 µM (inactive)
15,Oc1c(CN2CCN(c3ccccn3)CC2)cc(Cl)c2cccnc12,37.2 µM
16,O=C(CSc1cccc[n+]1[O-])c1cc2ccccc2o1,2.97 µM
17,CC1(C)C(C=C(Cl)Cl)C1C(=O)Nc1ccc([N+](=O)[O-])cc1 (stereo not drawn),51.3 µM
18,O=C1C(=O)c2ccccc2-c2ccccc21,7.79 µM
19,CC1=C(C)/C(=N\OS(=O)(=O)c2ccccc2)C=CC1=O,30.3 µM
20,O=C(CSCc1ccco1)Nc1cc(C(F)(F)F)ccc1N1CCOCC1,> 100 µM (inactive)
21,Cc1ccc(Oc2nc(CN3CCOCC3)nc3sc4c(c23)CCC(C)C4)cc1C (stereo not drawn),26.1 µM

row,Compound,IC50
1,O=[N+]([O-])c1ccc(CN2CCCCCC2)s1,> 100 µM (inactive)
2,Oc1ccc(Cl)cc1Cc1cc(Cl)ccc1O,21 µM
3,O=C1CSC(=S)N1c1cccnc1,31.9 µM
4,Cc1cc(=O)[nH]c(-n2nc(C)cc2C)n1,14.3 µM
5,COc1cc(/C=C2/C(=O)ON=C2c2ccccc2)ccc1O,8.49 µM
6,O=C(C1=C(O)/C(=C/c2ccc(O)cc2)CCC1)C(F)(F)F,> 100 µM (inactive)
7,Cc1ccc(N=Nc2ccc(O)c3ncccc23)cc1,34.3 µM
8,CCOc1ccc(/C=C/C(=O)c2cc(Br)ccc(=O)c2O)cc1,11.5 µM
9,Cn1c(SCC(=O)Nc2ccccc2)nc(O)cc1=O,50.1 µM
10,COc1ccc(NCc2ccc([N+](=O)[O-])s2)c(OC)c1,41.1 µM
11,CC(C)CC(=O)/C(=C\c1ccc(Cl)cc1Cl)n1cncn1,15.8 µM
12,c1ccc(-c2ccc(C(c3ccccc3)n3ccnc3)cc2)cc1 (stereo not drawn),1.67 µM
13,C/C(=N\Nc1ccc(Cl)c(Cl)c1)c1ccc(-n2ccnc2)cc1,30.1 µM
14,O=C(N/N=C1\CC2CC=CC12)c1ccc(COc2ccccc2)cc1 (stereo not drawn),> 100 µM (inactive)
15,Cc1nn(-c2ccccc2)c2sc(-c3n[nH]c(=S)o3)cc12,> 100 µM (inactive)
16,CCOC(=O)CNC(=O)CSc1nnc(-c2ccco2)n1Cc1ccco1,> 100 µM (inactive)
17,CCOc1ccc(NCc2nc3ccccc3n2CCOc2ccccc2)cc1,> 100 µM (inactive)
18,CCCCOC(=O)Sc1nc2ccccc2o1,16 µM
19,O=C(OCn1ncc(Br)c(Br)c1=O)c1ccccc1Cl,> 100 µM (inactive)
20,N#C/C(=N/O)c1nc(-c2ccc(F)cc2)cs1,24.9 µM
